Measurements: PMC12297533 (Scientific Reports, 2025)
Like-named read-outs stand apart in the source and are kept apart here.

What was measured:
[1] = biological target: AChE (Homo sapiens, UniProt P22303); test: biochemical; settings: for Inhibitory activity against AChE: concentrations up to 100 µM
[2] = biological target: T1, COX-1 (Homo sapiens, UniProt P23219); test: In vitro COX-1 enzyme inhibitory assay (Cayman kit); assay type: biochemical; settings: mean ± SD, n = 3
T1 construct: purchased Cayman No.548
T1 sequence (P23219 24-599): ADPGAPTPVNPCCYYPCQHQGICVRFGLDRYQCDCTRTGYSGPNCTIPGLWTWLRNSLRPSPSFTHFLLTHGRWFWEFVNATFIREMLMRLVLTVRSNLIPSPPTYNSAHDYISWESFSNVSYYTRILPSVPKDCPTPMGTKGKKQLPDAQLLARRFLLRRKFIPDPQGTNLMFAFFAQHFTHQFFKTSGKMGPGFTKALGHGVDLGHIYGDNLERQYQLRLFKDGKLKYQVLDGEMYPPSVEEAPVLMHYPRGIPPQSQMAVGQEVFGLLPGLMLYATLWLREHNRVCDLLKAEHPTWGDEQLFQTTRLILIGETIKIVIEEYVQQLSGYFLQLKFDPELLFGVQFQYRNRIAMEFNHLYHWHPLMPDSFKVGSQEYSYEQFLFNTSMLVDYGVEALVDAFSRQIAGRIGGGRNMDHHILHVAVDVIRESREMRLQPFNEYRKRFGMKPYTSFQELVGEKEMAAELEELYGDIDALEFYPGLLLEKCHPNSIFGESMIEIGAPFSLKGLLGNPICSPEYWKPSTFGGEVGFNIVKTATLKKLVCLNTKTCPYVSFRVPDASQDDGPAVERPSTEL
Procedure: (§1) The ability to inhibit COX-1 and COX-2 enzymes was evaluated as previously reported[35],[36], using COX-1 Cayman human enzyme inhibitory assay kit (No.548, USA), COX-2 Cayman human enzyme inhibitory assay kit (No.547, USA) and Tecan Spark reader. […] The % Relative Inhibition was calculated as follows: [drawing 1]

[3] = biological target: T2, COX-2 (Homo sapiens, UniProt P35354); test: In vitro COX-2 enzyme inhibitory assay (Cayman kit); assay type: biochemical; settings: for IC50: mean ± SD, n = 3
T2 construct: purchased Cayman No.547
T2 sequence (P35354 18-604): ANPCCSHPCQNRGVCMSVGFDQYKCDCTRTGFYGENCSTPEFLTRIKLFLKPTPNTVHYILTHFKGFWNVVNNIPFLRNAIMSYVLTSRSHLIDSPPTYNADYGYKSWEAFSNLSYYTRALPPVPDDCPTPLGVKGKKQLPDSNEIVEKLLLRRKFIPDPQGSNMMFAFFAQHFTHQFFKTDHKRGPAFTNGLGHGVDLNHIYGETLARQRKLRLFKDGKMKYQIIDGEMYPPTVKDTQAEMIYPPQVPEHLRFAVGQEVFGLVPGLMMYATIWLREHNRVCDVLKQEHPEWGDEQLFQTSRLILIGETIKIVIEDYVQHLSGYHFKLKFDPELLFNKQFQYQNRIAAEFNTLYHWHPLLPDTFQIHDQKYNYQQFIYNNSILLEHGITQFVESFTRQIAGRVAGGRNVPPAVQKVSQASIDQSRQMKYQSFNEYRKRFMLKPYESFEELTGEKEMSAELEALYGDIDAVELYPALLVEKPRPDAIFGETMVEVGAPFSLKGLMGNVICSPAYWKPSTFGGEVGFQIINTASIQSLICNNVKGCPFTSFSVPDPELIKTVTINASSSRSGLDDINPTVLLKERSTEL
Procedure: as §1

[4] = test system: SH-SY5Y cells; test: Protection against H2O2 induced-neurotoxicity; assay type: cell-based, human; settings: 150 μM H2O2; for Neuroprotective activity against H2O2: 6.25, 12.5, 25 μM
Procedure: H2O2 concentration that caused 50% reduction in cell viability was evaluated as previously reported. Then the cultured cells (2 × 10^4 cells/well) were incubated with test samples (at non-cytotoxic concentrations: 6.25, 12.5, 25 μM) or catechin as a positive control (at non-cytotoxic concentrations: 6.25, 12.5, 25, 50, 100 μM). Lastly, the WST-1 reagent was used to evaluate the cell viability as reported.

[5] = test system: SH-SY5Y cells; test: Determination of non-cytotoxic concentrations (WST-1 cell viability); assay type: cell-based; settings: for Non-cytotoxic concentration on SH-SY5Y cells: human; for Concentration showing cytotoxic effect on SH-SY5Y cells: tested 6.25-200 μM
Procedure: In this assay, the non-toxic concentrations of the tested samples to SH-SY5Y cells, along with catechin[58] and epicatechin-3-gallate[59] as a positive controls were used for the evaluation of the neuroprotective activity. […]. Cell viability was then assessed using a previously described method.

[6] = test system: SH-SY5Y cells; test: Protection against Aβ1-42 induced-neurotoxicity; assay type: cell-based, human; settings: only at 50 and 100 μM; Aβ1-42 25 μM
Procedure: Finally, evaluation of cell viability was conducted.

[7] = mean ± SD, n = 3, read-out: AChE inhibition IC50

Sequence of AChE (P22303 32-614): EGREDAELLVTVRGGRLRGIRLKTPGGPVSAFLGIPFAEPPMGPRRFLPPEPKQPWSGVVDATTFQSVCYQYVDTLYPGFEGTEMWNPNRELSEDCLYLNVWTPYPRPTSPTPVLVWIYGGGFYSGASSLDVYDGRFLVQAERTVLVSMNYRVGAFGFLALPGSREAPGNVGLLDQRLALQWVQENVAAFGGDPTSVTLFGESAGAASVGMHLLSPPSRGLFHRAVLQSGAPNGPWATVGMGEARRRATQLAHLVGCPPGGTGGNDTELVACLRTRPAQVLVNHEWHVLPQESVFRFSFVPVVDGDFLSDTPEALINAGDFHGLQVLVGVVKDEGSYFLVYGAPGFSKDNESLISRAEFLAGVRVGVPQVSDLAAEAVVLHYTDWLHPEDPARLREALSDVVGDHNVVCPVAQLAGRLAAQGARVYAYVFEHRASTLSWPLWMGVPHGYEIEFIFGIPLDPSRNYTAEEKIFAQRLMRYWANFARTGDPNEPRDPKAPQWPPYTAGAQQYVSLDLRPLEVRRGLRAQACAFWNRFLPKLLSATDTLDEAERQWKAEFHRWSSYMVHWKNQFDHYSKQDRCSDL

Row | Compound | inhibition at 100 µM ([1]; at 100 µM) [%] | IC50 [1, 7] [µM] | IC50 [2] [µM] | COX-2 selective index S.I = IC50 COX-1/IC50 COX-2 [3] | IC50 [3] [µM] | Neuroprotective activity against H2O2 [4] | Inhibitory activity against AChE [1] | IC50 [1] [µM] | Non-cytotoxic concentration on SH-SY5Y cells [5] [µM] | Neuroprotection against Aβ1-42 [6] | Concentration showing cytotoxic effect on SH-SY5Y cells [5] [µM] | Neuroprotective effect against H2O2 ([4]; only at 50 and 100 μM)
1 | CC(C)=CCC[C@](C)(O)[C@@H]1CC=C(C(=O)O)CC1 [Metabolite 3, Hamanasic acid A] | 20 | > 100 | 28.1 ± 1.74 | 4.362 | 6.45 ± 0.24 | didn’t show any neuroprotective activity |  |  |  |  |  | 
2 | CC(C)=CCCC(C)(O)C1CCC(C)CC1 (stereo not drawn) [Metabolite 4, 2,3-dihydro-α-bisabolol] |  | > 100 | 35.3 ± 2.18 | 8.598 | 4.11 ± 0.15 |  | no inhibitory activity |  |  |  |  | 
3 | CC(C)=CCCC(C)(O)C1CC=C(C)CC1 (stereo not drawn) [α-Bisabolol, (-)-α-bisabolol, reference compound] |  |  | 20.1 ± 1.19 | 6.889 | 2.92 ± 0.13 |  | no inhibitory activity | > 100 | ≤ 25 |  |  | 
4 | CC(C)(O)C(O)CCC(C)(O)C1CC=C(CO)CC1 (stereo not drawn) [Metabolite 6, 10β,11,15-trihydroxy-α-bisabolol] |  | > 100 | 67.8 ± 2.28 | 12.58 | 5.39 ± 0.18 |  | no inhibitory activity |  | ≤ 12.5 |  |  | 
5 | epicatechin-3-gallate |  |  |  |  |  |  |  |  |  | exhibited neuroprotection | 200 | 
6 | CC1=CCC(C(C)(O)CCC(O)C(C)(C)O)CC1 (stereo not drawn) [Metabolite 2, 10β,11-dihydroxy-α-bisabolol] |  | 12.9 | 71 ± 4.4 | 4.093 | 17.3 ± 0.66 |  |  |  |  |  |  | 
7 | COC(=O)C1=CCC(C(C)CCC2OC2(C)C)CC1 (stereo not drawn) [Metabolite 5, 7-dehydroxy-10,11-epoxy-3-methylcarboxy-α-bisabolol] |  |  | 16.8 ± 1.04 | 6.711 | 2.51 ± 0.09 | didn’t show any neuroprotective activity | no inhibitory activity | > 100 |  |  |  | 
8 | O.Oc1cc(O)c2c(c1)O[C@H](c1ccc(O)c(O)c1)[C@@H](O)C2 [catechin, reference compound] |  |  |  |  |  |  |  |  |  |  | 200 | exhibited neuroprotective effects
